Tested on: kaolin-induced rat paw edema
Experiment: kaolin-induced rat paw edema assay: inhibition of paw swelling, single oral dose
Assay type: in vivo, rat (male Holtzman)
Details: 3.0 mg/kg
Experimental: In the kaolin-induced rat paw edema assay, the ability of a compound, when administered in a single oral dose, to inhibit the swelling of the rat paw injected with a standard amount (0.1 ml.) of 10% kaolin suspension in saline is measured. For comparative purposes, the activity of the compound to be tested is measured against that produced by the known anti-inflammatory agent, phenylbutazone. Male Holtzman rats are used in the assay.

First: Cc1cc(C(C)C(=O)O)n(C)c1C(=O)c1ccc(Cl)cc1 (stereo not drawn) [5-(p-Chlorobenzoyl)-1,4,α-trimethylpyrrole-2-acetic acid]
Second: CCc1cc(CC(=O)O)n(C)c1C(=O)c1ccc(Cl)cc1 [5-(p-Chlorobenzoyl)-4-ethyl-1-methylpyrrole-2-acetic acid]
The inhibition of the first is higher: 37% for the first, 29% for the second.

Same assay, conditions: 9.0 mg/kg

Compared with `Cc1cc(C(C)C(=O)O)n(C)c1C(=O)c1ccc(Cl)cc1` (stereo not drawn) [5-(p-Chlorobenzoyl)-1,4,α-trimethylpyrrole-2-acetic acid], `CCc1cc(CC(=O)O)n(C)c1C(=O)c1ccc(Cl)cc1` [5-(p-Chlorobenzoyl)-4-ethyl-1-methylpyrrole-2-acetic acid] is lower in inhibition: 53% for the first, 47% for the second.

Same assay, conditions: 80 mg/kg, comparator

In the case of `CCCCC1C(=O)N(c2ccccc2)N(c2ccccc2)C1=O` [phenylbutazone, reference compound], the inhibition is reported as 30-40%.

Same assay, conditions: 100 mg/kg, comparator

With `CCCCC1C(=O)N(c2ccccc2)N(c2ccccc2)C1=O` [phenylbutazone, reference compound] the inhibition was 50-60%.

Same assay, conditions: Rattus norvegicus, po, Table I; 12.5 mg/kg p.o.; read-out: % INHIBITION (Average 10 rats)

With `Cc1ccccc1C(=O)c1ccc(CC(=O)O)n1C` [5-(o-methylbenzoyl)-do, 1-Methyl-5-(o-toluoyl)-pyrrole-2-acetic acid] the inhibition in vivo at 12.5 mg/kg was 34%.

Same assay, conditions: Rattus norvegicus, po, Table I; 25 mg/kg p.o.; read-out: % INHIBITION (Average 10 rats)

Going from `Cn1c(CC(=O)O)ccc1C(=O)c1ccc(C(F)(F)F)cc1` [5-(p-trifluoromethylbenzoyl)-do, 1-methyl-5-(p-trifluoromethylbenzoyl)-pyrrole-2-acetic acid] to `Cn1c(CC(=O)O)ccc1C(=O)c1ccc(F)cc1` [5-(p-fluorobenzoyl)-do, 5-(p-fluorobenzoyl)-1-methylpyrrole-2-acetic acid], the inhibition in vivo at 25 mg/kg falls from 60% to 42%.

Going from `Cn1c(CCC(=O)O)ccc1C(=O)c1ccc(Cl)cc1` [5-(p-Chlorobenzoyl)-1-methylpyrrole-2-propionic acid] to `Cn1c(CC(=O)O)ccc1C(=O)c1ccc(Cl)cc1` [5-(p-Chlorobenzoyl)-1-methylpyrrole-2-acetic acid], the inhibition in vivo at 25 mg/kg falls from 63% to 47%.

First: Cn1c(CC(=O)O)ccc1C(=O)c1ccccc1Cl [5-(o-chlorobenzoyl)-do, 5-(o-Chlorobenzoyl)-1-methylpyrrole-2-acetic acid]
Second: Cn1c(CC(=O)O)ccc1C(=O)c1ccccc1 [Example 5-benzoyl-do, 5-Benzoyl-1-methylpyrrole-2-acetic acid]
The inhibition in vivo at 25 mg/kg of the first is higher: 44% for the first, 38% for the second.

Compared with `CCN(CC)CCNC(=O)Cc1ccc(C(=O)c2ccc(Cl)cc2)n1C` [5-(p-Chlorobenzoyl)-N-(2-diethylaminoethyl)-1-methylpyrrole-2-acetamide], `CCNC(=O)Cc1ccc(C(=O)c2ccc(Cl)cc2)n1C` [5-(p-Chlorobenzoyl)-N-ethyl-1-methylpyrrole-2-acetamide] is lower in inhibition in vivo at 25 mg/kg: 27% for the first, 25% for the second.

First: Cn1c(CC(=O)O)ccc1C(=O)c1ccc(N)cc1 [5-(p-aminobenzoyl)-do, 5-(p-Aminobenzoyl)-1-methylpyrrole-2-acetic acid]
Second: Cc1ccc(C(=O)c2ccc(CC(=O)O)n2C)cc1 [5-(p-methylbenzoyl)-do, 5-(p-Toluoyl)-1-methylpyrrole-2-acetic acid]
The inhibition in vivo at 25 mg/kg of the first is lower: 23% for the first, 44% for the second.

Compared with `CCOC(=O)Cc1ccc(C(=O)c2ccc(Cl)cc2)n1C` [Ethyl 5-(p-chlorobenzoyl)-1-methylpyrrole-2-acetate], `COC(=O)Cc1ccc(C(=O)c2ccc(Cl)cc2)n1C` [Methyl 5-(p-chlorobenzoyl)-1-methylpyrrole-2-acetate] is higher in inhibition in vivo at 25 mg/kg: 37% for the first, 38% for the second.

First: Cn1c(CC(=O)O)ccc1C(=O)c1cccc(Cl)c1 [5-(m-chlorobenzoyl)-do, 5-(m-Chlorobenzoyl)-1-methylpyrrole-2-acetic acid]
Second: Cn1c(CC(=O)O)ccc1C(=O)c1ccc(Cl)cc1Cl [5-(2',4'-dichlorobenzoyl)-do, 5-(2',4'-Dichlorobenzoyl)-1-methylpyrrole-2-acetic acid]
The inhibition in vivo at 25 mg/kg of the first is lower: 41% for the first, 51% for the second.

Going from `Cn1c(CC(=O)O)ccc1C(=O)c1cccs1` [5-(2-thenoyl)-do, 1-Methyl-5-(2-thenoyl)-pyrrole-2-acetic acid] to `Cc1ccc(C(=O)c2ccc(CC(=O)O)n2C)s1` [1-Methyl-5-(5-methyl-2-thenoyl)-pyrrole-2-acetic acid], the inhibition in vivo at 25 mg/kg falls from 63% to 48%.

`COc1ccc(C(=O)c2ccc(CC(=O)O)n2C)cc1` [5-(p-methoxybenzoyl)-do, 5-(p-Anisoyl)-1-methylpyrrole-2-acetic acid] and `Cn1c(CC(=O)O)ccc1C(=O)c1ccc(Br)cc1` [5-(p-bromobenzoyl)-do, 5-(p-bromobenzoyl)-1-methylpyrrole-2-acetic acid] are the same in inhibition in vivo at 25 mg/kg: 42% for the first, 42% for the second.

First: CCC(C(=O)O)c1ccc(C(=O)c2ccc(Cl)cc2)n1C (stereo not drawn) [5-(p-Chlorobenzoyl)-α-ethyl-1-methylpyrrole-2-acetic acid]
Second: Cn1c(CC(=O)NO)ccc1C(=O)c1ccc(Cl)cc1 [5-(p-Chlorobenzoyl)-1-methylpyrrole-2-acetohydroxamic acid]
The inhibition in vivo at 25 mg/kg of the first is lower: 22% for the first, 33% for the second.

Going from `CCN(CC)C(=O)Cc1ccc(C(=O)c2ccc(Cl)cc2)n1C` [5-(p-Chlorobenzoyl)-N,N-diethyl-1-methylpyrrole-2-acetamide] to `O=C(O)Cc1ccc(C(=O)c2ccc(Cl)cc2)[nH]1` [5-(p-Chlorobenzoyl)-pyrrole-2-acetic acid], the inhibition in vivo at 25 mg/kg falls from 36% to 32%.

Same assay, conditions: Rattus norvegicus, po, Table I; 50 mg/kg p.o.; read-out: % INHIBITION (Average 10 rats)

Compared with `O=C(O)Cc1ccc(C(=O)c2ccc(Cl)cc2)n1Cc1ccccc1` [1-Benzyl-5-(p-chlorobenzoyl)-pyrrole-2-acetic acid], `Cn1c(CC(N)=O)ccc1C(=O)c1ccc(Cl)cc1` [5-(p-Chlorobenzoyl)-1-methylpyrrole-2-acetamide] is higher in inhibition in vivo at 50 mg/kg: 23% for the first, 35% for the second.

Compared with `CC(C(=O)O)c1ccc(C(=O)c2ccc(Cl)cc2)n1C` (racemic) [5-(p-chlorobenzoyl)-α-methyl-1-methylpyrrole-2-acetic acid], `Cc1c(CC(=O)O)c[nH]c1C(=O)c1ccc(Cl)cc1` [5-(p-Chlorobenzoyl)-4-methylpyrrole-3-acetic acid] is lower in inhibition in vivo at 50 mg/kg: 56% for the first, 43% for the second.

Same assay, conditions: Rattus norvegicus, po, Table I; 100 mg/kg p.o.; read-out: % INHIBITION (Average 10 rats)

First: CCn1c(CC(=O)O)ccc1C(=O)c1ccc(Cl)cc1 [5-(p-Chlorobenzoyl)-1-ethylpyrrole-2-acetic acid]
Second: Cn1c(CC(=O)O)ccc1C(=O)c1ccc(C#N)cc1 [5-(p-cyanobenzoyl)-do, 5-(p-cyanobenzoyl)-1-methylpyrrole-2-acetic acid]
The inhibition in vivo at 100 mg/kg of the first is higher: 43% for the first, 20% for the second.

First: Cn1c(CC(=O)O)ccc1C(=O)c1ccc([N+](=O)[O-])cc1 [5-(p-nitrobenzoyl)-do, 5-(p-Nitrobenzoyl)-1-methylpyrrole-2-acetic acid]
Second: Cc1cc(CC(=O)O)[nH]c1C(=O)c1ccccc1 [5-benzoyl-4-methylpyrrole-2-acetic acid, 5-Benzoyl-4-methylpyrrole-2-acetic acid]
The inhibition in vivo at 100 mg/kg of the first is higher: 35% for the first, 34% for the second.

Same assay, conditions: Table I; 25 mg/kg p.o.; 25 mg/kg

With `CC(C(=O)O)c1ccc(C(=O)c2ccc(Cl)cc2)n1C` (single isomer, unassigned; (+)) [(+)-5-(p-chlorobenzoyl)-α-methyl-1-methylpyrrole-2-acetic ac] [(+)-5-(p-chlorobenzoyl)-1,α-dimethylpyrrole-2-acetic acid] the “% INHIBITION (Average 10 rats)” value was 62%.
For `CC(C(=O)O)c1ccc(C(=O)c2ccc(Cl)cc2)n1C` (single isomer, unassigned; (-)) [(-)-5-(p-chlorobenzoyl)-α-methyl-1-methylpyrrole-2-acetic ac] [(-)-5-(p-chlorobenzoyl)-1,α-dimethylpyrrole-2-acetic acid], the “% INHIBITION (Average 10 rats)” value was 24%.

Same assay, conditions: dose of 2.5 mg/kg

`Cc1cc(CC(=O)O)n(C)c1C(=O)c1ccc(Cl)cc1` [5-(p-chlorobenzoyl)-1,4-dimethylpyrrole-2-acetic acid] showed an inhibition of 51%.

Same assay, conditions: single oral dose 12.5 mg/kg

With `Cn1c(CC(=O)O)ccc1C(=O)c1ccc(Cl)cc1` [5-(p-Chlorobenzoyl)-1-methylpyrrole-2-acetic acid] the inhibition was “about 35%”.

Same assay, conditions: single oral dose 25 mg/kg

With `Cn1c(CC(=O)O)ccc1C(=O)c1ccc(Cl)cc1` [5-(p-Chlorobenzoyl)-1-methylpyrrole-2-acetic acid] the inhibition was “about 47%”.

Same assay, conditions: single oral doses of 50-100 mg/kg

For `Cn1c(CC(=O)O)ccc1C(=O)c1ccc(Cl)cc1` [5-(p-Chlorobenzoyl)-1-methylpyrrole-2-acetic acid], the inhibition was 45-53%.

Tested on: cotton pellet granuloma
Experiment: cotton pellet granuloma assay: granuloma tissue formed around implanted cotton pellet
Assay type: in vivo, rat (male Holtzman)
Details: 25 mg/kg orally, daily for seven days; water controls 110 mg
Experimental: In the cotton pellet granuloma assay, the ability of a compound, when administered orally to male Holtzman rats daily for seven days, to inhibit the amount of granuloma tissue formed in or around a cotton pellet implanted beneath the skin in the thoracic region of the animal is measured and compared to water controls. The method is described by Charles A. Winter and coworkers in J. Pharmacol., 141, 369 (1963). Analysis of variance is used to determine the significance of the results.

For `COc1ccc(C(=O)c2ccc(CC(=O)O)n2C)cc1` [5-(p-methoxybenzoyl)-do, 5-(p-Anisoyl)-1-methylpyrrole-2-acetic acid], the granuloma weight was “about 71 mg”.

Same assay, conditions: 100 mg/kg orally, daily for seven days; water controls 115 mg

With `Cn1c(CC#N)ccc1C(=O)c1ccc(Cl)cc1` [5-(p-Chlorobenzoyl)-1-methylpyrrole-2-acetonitrile] the granuloma weight was “about 98 mg”.

Source: patent publication US3952012A, “Aroyl-substituted pyrroles” (McNeil Laboratories, Incorporated, priority 1974, dated 1976)
